In data set [1] the target is T1, CYP17 (human testicular microsome) (Homo sapiens, UniProt P05093).
T1 construct: using microsomal fraction from human testis (Celsis Cat #S00110) as the enzyme source; tissue Celsis S00110; host or cells: human testis microsomal fraction
T1 sequence (P05093 1-508): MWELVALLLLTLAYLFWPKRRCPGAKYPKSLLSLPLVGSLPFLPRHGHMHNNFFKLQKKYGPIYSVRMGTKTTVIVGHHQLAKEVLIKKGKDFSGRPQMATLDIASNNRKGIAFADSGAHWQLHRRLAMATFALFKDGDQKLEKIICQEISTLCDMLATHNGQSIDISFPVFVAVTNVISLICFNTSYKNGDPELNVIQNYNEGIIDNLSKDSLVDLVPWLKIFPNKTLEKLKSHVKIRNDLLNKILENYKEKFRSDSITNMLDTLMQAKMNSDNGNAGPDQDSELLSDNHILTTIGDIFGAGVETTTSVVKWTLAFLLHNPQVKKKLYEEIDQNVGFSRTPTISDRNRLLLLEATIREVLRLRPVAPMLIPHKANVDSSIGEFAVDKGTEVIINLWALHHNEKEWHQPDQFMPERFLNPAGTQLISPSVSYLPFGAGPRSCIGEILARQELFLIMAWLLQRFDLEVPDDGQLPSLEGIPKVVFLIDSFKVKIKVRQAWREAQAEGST
The data set can be described thus: CYP17 enzymatic assay (% inhibition at 1 nM) (Biological Example 12). Format: biochemical. Particulars: compound at 1 nM, read-out: CYP17 enzymatic assay % inhibition at 1 nM (Biological Example No. 12).

Data set [2] in a line: Human liver microsome stability assay (Biological Example 8b). To be noted: liver microsomes, pH 7.4. For orientation: Microsomes from liver hold many membrane-bound enzymes, among them those of drug oxidation.
Protocol: The reaction was started with addition of excess NADPH (5 mg/mL, 15 μL in 0.1 M potassium phosphate buffer, 1.0 mM EDTA, pH 7.4), the total volume is 45 μL (compound final concentration was 1 μM). […] 50 μL of the supernatant was transferred from each well into a 96-well sample plate containing 50 μL of ultra-pure water (Millipore) for LC-MS/MS analysis.

Bounds are passed on as bounds.

As usually defined, the inhibition is how much of the control response was suppressed. One may read the half-life as the time needed for the level to fall by half in the phase considered. Low values mean fast loss, high ones slow loss. On to `CC(=O)NC1CC[C@@]2(C)C(=CCC3C2CC[C@]2(C)C(n4ccnc4)=CCC32)C1` (stereo partly drawn) [Compound 237, N-((10R,13S)-17-(1H-imidazol-1-yl)-10,13-dimethyl-2,3,4,7,8,9,10,11,12,13,14,15-dodecahydro-1H-cyclopenta[a]phenanthren-3-yl)acetamide], for which, in data set [1], the inhibition at 0.001 µM is over 50%. Further, the half-life at 1 μM in data set [2] is over 50 min.

In data set [2], `C[C@]12CC[C@H]3[C@@H](CC=C4C[C@@H](O)CC[C@@]43C)C1=CC=C2c1cccnc1` [Compound 79, (3S,10R,13S)-10,13-dimethyl-17-(pyridin-3-yl)-2,3,4,7,8,9,10,11,12,13-decahydro-1H-cyclopenta[a]phenanthren-3-ol] registered a half-life at 1 μM of 1 to 50 min.
